Assay results published in patent US20110028686A1, “Protein binding miniature proteins” (Yale University, priority 2000, published 2011).
Square brackets hold non-standard residues; d marks the D form. Peptide text beside a SMILES is read from it. * marks the point of attachment. Fluorescein(5-NHCOCH2) = O=C(C*)Nc1ccc2c(c1)C(=O)OC21c2ccc(O)cc2Oc2cc(O)ccc21; pS = N[C@@H](COP(=O)(O)O)C(=O)O; Sar = CNCC(=O)O

Biological target: T1, CBP KIX wild type (Mus musculus, UniProt P45481)
T1 construct: made in house; host or cells: E. coli BL21(DE3) pArg
T1 sequence (P45481 586-665 limits assumed): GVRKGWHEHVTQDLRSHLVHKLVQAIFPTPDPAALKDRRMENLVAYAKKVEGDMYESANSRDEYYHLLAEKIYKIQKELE
Experiment: Equilibrium fluorescence polarization, wild type CBP KIX
Format: binding
Settings: 25° C.

Row | SMILES | Kd
1 | CC[C@H](C)[C@H](NC(=O)[C@H](Cc1ccc(O)cc1)NC(=O)[C@H](Cc1ccccc1)NC(=O)[C@H](Cc1ccccc1)NC(=O)[C@H](COP(=O)(O)O)NC(=O)[C@H](CC(C)C)NC(=O)[C@H](CCCNC(=N)N)NC(=O)[C@H](CCCNC(=N)N)NC(=O)[C@@H](NC(=O)[C@@H]1CCCN1C(=O)[C@H](C)NC(=O)[C@H](CC(=O)O)NC(=O)[C@H](CC(=O)O)NC(=O)CNC(=O)[C@@H]1CCCN1C(=O)[C@H](Cc1ccc(O)cc1)NC(=O)[C@@H](NC(=O)[C@H](C)NC(=O)[C@H](CCC(N)=O)NC(=O)[C@H](CO)NC(=O)[C@@H]1CCCN1C(=O)CN)[C@@H](C)O)C(C)C)C(=O)N[C@@H](CC(C)C)C(=O)N[C@@H](CC(C)C)C(=O)N[C@@H](CC(=O)O)C(=O)N[C@@H](CC(C)C)C(=O)N[C@@H](Cc1ccc(O)cc1)C(=O)N[C@@H](CC(C)C)C(=O)N[C@@H](CC(=O)O)C(=O)N[C@@H](C)C(=O)N1CCC[C@H]1C(=O)NCC(=O)N[C@H](C(=O)N[C@@H](CSCC(=O)Nc1ccc2c(c1)C(=O)OC21c2ccc(O)cc2Oc2cc(O)ccc21)C(N)=O)C(C)C [P5A] (H-GPSQATYPGDDAPVRRL[pS]FFYILLDLYLDAPGVC(Fluorescein(5-NHCOCH2))-NH2) | 1020 ± 90 nM
2 | CC[C@H](C)[C@H](NC(=O)[C@H](Cc1ccc(O)cc1)NC(=O)[C@H](Cc1ccccc1)NC(=O)[C@H](Cc1ccccc1)NC(=O)[C@H](COP(=O)(O)O)NC(=O)[C@H](CC(C)C)NC(=O)[C@H](CCCNC(=N)N)NC(=O)[C@H](CCCNC(=N)N)NC(=O)[C@@H](NC(=O)[C@@H]1CCCN1C(=O)[C@H](C)NC(=O)[C@H](CC(=O)O)NC(=O)[C@H](CC(=O)O)NC(=O)CNC(=O)[C@@H]1CCCN1C(=O)[C@H](Cc1ccc(O)cc1)NC(=O)[C@@H](NC(=O)[C@@H]1CCCN1C(=O)[C@H](CCC(N)=O)NC(=O)[C@H](CO)NC(=O)CN(C)C(=O)CN)[C@@H](C)O)C(C)C)C(=O)N[C@@H](CC(C)C)C(=O)N[C@@H](CC(C)C)C(=O)N[C@@H](CC(=O)O)C(=O)N[C@@H](CC(C)C)C(=O)N[C@@H](Cc1ccc(O)cc1)C(=O)N[C@@H](CC(C)C)C(=O)N[C@@H](CC(=O)O)C(=O)N[C@@H](C)C(=O)N1CCC[C@H]1C(=O)NCC(=O)N[C@H](C(=O)N[C@@H](CSCC(=O)Nc1ccc2c(c1)C(=O)OC21c2ccc(O)cc2Oc2cc(O)ccc21)C(N)=O)C(C)C [P2Z] (H-G[Sar]SQPTYPGDDAPVRRL[pS]FFYILLDLYLDAPGVC(Fluorescein(5-NHCOCH2))-NH2) | 830 ± 80 nM
3 | CC[C@H](C)[C@H](NC(=O)[C@H](Cc1ccc(O)cc1)NC(=O)[C@H](Cc1ccccc1)NC(=O)[C@H](Cc1ccccc1)NC(=O)[C@H](COP(=O)(O)O)NC(=O)[C@H](CC(C)C)NC(=O)[C@H](CCCNC(=N)N)NC(=O)[C@H](CCCNC(=N)N)NC(=O)[C@@H](NC(=O)[C@@H]1CCCN1C(=O)[C@H](C)NC(=O)[C@H](CC(=O)O)NC(=O)[C@H](CC(=O)O)NC(=O)CNC(=O)CN(C)C(=O)[C@H](Cc1ccc(O)cc1)NC(=O)[C@@H](NC(=O)[C@@H]1CCCN1C(=O)[C@H](CCC(N)=O)NC(=O)[C@H](CO)NC(=O)[C@@H]1CCCN1C(=O)CN)[C@@H](C)O)C(C)C)C(=O)N[C@@H](CC(C)C)C(=O)N[C@@H](CC(C)C)C(=O)N[C@@H](CC(=O)O)C(=O)N[C@@H](CC(C)C)C(=O)N[C@@H](Cc1ccc(O)cc1)C(=O)N[C@@H](CC(C)C)C(=O)N[C@@H](CC(=O)O)C(=O)N[C@@H](C)C(=O)N1CCC[C@H]1C(=O)NCC(=O)N[C@H](C(=O)N[C@@H](CSCC(=O)Nc1ccc2c(c1)C(=O)OC21c2ccc(O)cc2Oc2cc(O)ccc21)C(N)=O)C(C)C [P8Z] (H-GPSQPTY[Sar]GDDAPVRRL[pS]FFYILLDLYLDAPGVC(Fluorescein(5-NHCOCH2))-NH2) | 780 ± 50 nM
4 | CC[C@H](C)[C@H](NC(=O)[C@H](Cc1ccc(O)cc1)NC(=O)[C@H](Cc1ccccc1)NC(=O)[C@H](Cc1ccccc1)NC(=O)[C@H](COP(=O)(O)O)NC(=O)[C@H](CC(C)C)NC(=O)[C@H](CCCNC(=N)N)NC(=O)[C@H](CCCNC(=N)N)NC(=O)[C@@H](NC(=O)[C@@H]1CCCN1C(=O)[C@H](C)NC(=O)[C@H](CC(=O)O)NC(=O)[C@H](CC(=O)O)NC(=O)CNC(=O)[C@@H]1CCCN1C(=O)[C@H](Cc1ccc(O)cc1)NC(=O)[C@@H](NC(=O)[C@@H]1CCCN1C(=O)[C@H](CCC(N)=O)NC(=O)[C@H](CO)NC(=O)[C@H](C)NC(=O)CN)[C@@H](C)O)C(C)C)C(=O)N[C@@H](CC(C)C)C(=O)N[C@@H](CC(C)C)C(=O)N[C@@H](CC(=O)O)C(=O)N[C@@H](CC(C)C)C(=O)N[C@@H](Cc1ccc(O)cc1)C(=O)N[C@@H](CC(C)C)C(=O)N[C@@H](CC(=O)O)C(=O)N[C@@H](C)C(=O)N1CCC[C@H]1C(=O)NCC(=O)N[C@H](C(=O)N[C@@H](CSCC(=O)Nc1ccc2c(c1)C(=O)OC21c2ccc(O)cc2Oc2cc(O)ccc21)C(N)=O)C(C)C [P2A] (H-GASQPTYPGDDAPVRRL[pS]FFYILLDLYLDAPGVC(Fluorescein(5-NHCOCH2))-NH2) | 870 ± 40 nM

The remaining lines, values ahead:

Row | Kd | SMILES
5 | 830 ± 110 nM | CC[C@H](C)[C@H](NC(=O)[C@H](Cc1ccc(O)cc1)NC(=O)[C@H](Cc1ccccc1)NC(=O)[C@H](Cc1ccccc1)NC(=O)[C@H](COP(=O)(O)O)NC(=O)[C@H](CC(C)C)NC(=O)[C@H](CCCNC(=N)N)NC(=O)[C@H](CCCNC(=N)N)NC(=O)[C@@H](NC(=O)[C@@H]1CCCN1C(=O)[C@H](C)NC(=O)[C@H](CC(=O)O)NC(=O)[C@H](CC(=O)O)NC(=O)CNC(=O)[C@@H]1CCCN1C(=O)[C@H](Cc1ccc(O)cc1)NC(=O)[C@@H](NC(=O)[C@@H]1CCCN1C(=O)[C@H](CCC(N)=O)NC(=O)[C@H](CO)NC(=O)[C@@H]1CCCN1C(=O)CN)[C@@H](C)O)C(C)C)C(=O)N[C@@H](CC(C)C)C(=O)N[C@@H](CC(C)C)C(=O)N[C@@H](CC(=O)O)C(=O)N[C@@H](CC(C)C)C(=O)N[C@@H](Cc1ccc(O)cc1)C(=O)N[C@@H](C)C(=O)N[C@@H](CC(=O)O)C(=O)N[C@@H](C)C(=O)N1CCC[C@H]1C(=O)NCC(=O)N[C@H](C(=O)N[C@@H](CSCC(=O)Nc1ccc2c(c1)C(=O)OC21c2ccc(O)cc2Oc2cc(O)ccc21)C(N)=O)C(C)C [L28A] (H-GPSQPTYPGDDAPVRRL[pS]FFYILLDLYADAPGVC(Fluorescein(5-NHCOCH2))-NH2)
6 | 680 ± 50 nM | CC[C@H](C)[C@H](NC(=O)[C@H](Cc1ccc(O)cc1)NC(=O)[C@H](Cc1ccccc1)NC(=O)[C@H](Cc1ccccc1)NC(=O)[C@H](COP(=O)(O)O)NC(=O)[C@H](C)NC(=O)[C@H](CCCNC(=N)N)NC(=O)[C@H](CCCNC(=N)N)NC(=O)[C@@H](NC(=O)[C@@H]1CCCN1C(=O)[C@H](C)NC(=O)[C@H](CC(=O)O)NC(=O)[C@H](CC(=O)O)NC(=O)CNC(=O)[C@@H]1CCCN1C(=O)[C@H](Cc1ccc(O)cc1)NC(=O)[C@@H](NC(=O)[C@@H]1CCCN1C(=O)[C@H](CCC(N)=O)NC(=O)[C@H](CO)NC(=O)[C@@H]1CCCN1C(=O)CN)[C@@H](C)O)C(C)C)C(=O)N[C@@H](CC(C)C)C(=O)N[C@@H](CC(C)C)C(=O)N[C@@H](CC(=O)O)C(=O)N[C@@H](CC(C)C)C(=O)N[C@@H](Cc1ccc(O)cc1)C(=O)N[C@@H](CC(C)C)C(=O)N[C@@H](CC(=O)O)C(=O)N[C@@H](C)C(=O)N1CCC[C@H]1C(=O)NCC(=O)N[C@H](C(=O)N[C@@H](CSCC(=O)Nc1ccc2c(c1)C(=O)OC21c2ccc(O)cc2Oc2cc(O)ccc21)C(N)=O)C(C)C [L17A] (H-GPSQPTYPGDDAPVRRA[pS]FFYILLDLYLDAPGVC(Fluorescein(5-NHCOCH2))-NH2)
7 | 3090 ± 180 nM | CC[C@H](C)[C@H](NC(=O)[C@H](Cc1ccc(O)cc1)NC(=O)[C@H](Cc1ccccc1)NC(=O)[C@H](Cc1ccccc1)NC(=O)[C@H](COP(=O)(O)O)NC(=O)[C@H](CC(C)C)NC(=O)[C@H](CCCNC(=N)N)NC(=O)[C@H](CCCNC(=N)N)NC(=O)[C@@H](NC(=O)[C@@H]1CCCN1C(=O)[C@H](C)NC(=O)[C@H](CC(=O)O)NC(=O)[C@H](CC(=O)O)NC(=O)CNC(=O)[C@@H]1CCCN1C(=O)[C@H](Cc1ccc(O)cc1)NC(=O)[C@@H](NC(=O)[C@@H]1CCCN1C(=O)[C@H](CCC(N)=O)NC(=O)[C@H](CO)NC(=O)[C@@H]1CCCN1C(=O)CN)[C@@H](C)O)C(C)C)C(=O)N[C@@H](CC(C)C)C(=O)N[C@@H](CC(C)C)C(=O)N[C@@H](CC(=O)O)C(=O)N[C@@H](CC(C)C)C(=O)N[C@@H](C)C(=O)N[C@@H](CC(C)C)C(=O)N[C@@H](CC(=O)O)C(=O)N[C@@H](C)C(=O)N1CCC[C@H]1C(=O)NCC(=O)N[C@H](C(=O)N[C@@H](CSCC(=O)Nc1ccc2c(c1)C(=O)OC21c2ccc(O)cc2Oc2cc(O)ccc21)C(N)=O)C(C)C [Y27A] (H-GPSQPTYPGDDAPVRRL[pS]FFYILLDLALDAPGVC(Fluorescein(5-NHCOCH2))-NH2)
8 | 1160 ± 70 nM | CC[C@H](C)[C@H](NC(=O)[C@H](Cc1ccc(O)cc1)NC(=O)[C@H](Cc1ccccc1)NC(=O)[C@H](Cc1ccccc1)NC(=O)[C@H](COP(=O)(O)O)NC(=O)[C@H](CC(C)C)NC(=O)[C@H](CCCNC(=N)N)NC(=O)[C@H](CCCNC(=N)N)NC(=O)[C@@H](NC(=O)[C@@H]1CCCN1C(=O)[C@H](C)NC(=O)[C@H](CC(=O)O)NC(=O)[C@H](CC(=O)O)NC(=O)CNC(=O)[C@@H]1CCCN1C(=O)[C@H](Cc1ccc(O)cc1)NC(=O)[C@@H](NC(=O)[C@@H]1CCCN1C(=O)[C@H](CCC(N)=O)NC(=O)[C@H](CO)NC(=O)[C@@H]1CCCN1C(=O)CN)[C@@H](C)O)C(C)C)C(=O)N[C@@H](CC(C)C)C(=O)N[C@@H](C)C(=O)N[C@@H](CC(=O)O)C(=O)N[C@@H](CC(C)C)C(=O)N[C@@H](Cc1ccc(O)cc1)C(=O)N[C@@H](CC(C)C)C(=O)N[C@@H](CC(=O)O)C(=O)N[C@@H](C)C(=O)N1CCC[C@H]1C(=O)NCC(=O)N[C@H](C(=O)N[C@@H](CSCC(=O)Nc1ccc2c(c1)C(=O)OC21c2ccc(O)cc2Oc2cc(O)ccc21)C(N)=O)C(C)C [L24A] (H-GPSQPTYPGDDAPVRRL[pS]FFYILADLYLDAPGVC(Fluorescein(5-NHCOCH2))-NH2)
